Results taken from patent US20210284621A1 (priority 2018, published 2021).
Where two headings read alike, the source gives them in different places.

Experiments:
CB2 receptor [1] = target: T1, CB2 receptor (Homo sapiens, UniProt P34972); assay: cAMP Assay #1: CB2 adenylylcyclase assay in CHO cells; assay type: cell-based; parameters: expressed in transfected cells; host or cells: CHO cells
Procedure: (§1) Compounds of the invention were assayed in an adenylylcyclase assay to determine agonist activity on the CB1 and CB2 receptors, the results of which are provided in Table 4. Exemplary methods for the adenylylcyclase assay can be found in the literature, for example, in Rhee, M-H., et al. Cannabinol Derivatives: Binding to Cannabinoid Receptors and Inhibition of Adenylylcyclase. J Med Chem. 40: 3228-3233 (1997).
CB2 Activity as determined by Adenylylcyclase Assay: CB2 receptor agonist activity was measured by measuring cAMP production. A compound of the invention was incubated with CHO cells expressing human recombinant CB2 for 10 minutes at 37° C.
(§2) Determination of EC50 values: The EC50 values (concentration producing a half-maximal response) were determined by non-linear regression analysis of the concentration-response curves generated with mean replicate values using Hill equation curve fitting: Y=D+[(A−D)/(1+(C/C50)^nH)], where Y=response, A=left asymptote of the curve, D=right asymptote of the curve, C=compound concentration, and C50=EC50, and nH=slope factor. This analysis was performed using software developed at Cerep (Hill software) and validated by comparison with data generated by the commercial software SigmaPlot® 4.0 for Windows® (© 1997 by SPSS Inc.).

CB1 receptor [2] = target: T2, CB1 receptor (Homo sapiens, UniProt P21554); assay: cell-based; parameters: host or cells: PathHunter cell lines; settings: PathHunter agonist mode; read-out: CB1 Activity (β-Arrestin)
CB1 receptor [3] = target: T2, CB1 receptor; assay: CB1 competitive radioligand binding assay ([3H] SR141716A); parameters: expressed in transfected cells; host or cells: Chem-1 cells; settings: for inhibition at 0.5 µM: 0.5 μM compound, 2.0 nM [3H] SR141716A, 90 min 37° C.
In short: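 Chem-1 cells expressing human recombinant CB1 incubated 90 min at 37° C with 2.0 nM [3H]SR141716A and compound at 0.5 μM (1% DMSO) in HEPES pH 7.4 buffer with MgCl2, CaCl2, 0.2% BSA. Read-out is % inhibition of radioligand binding.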

CB2 receptor [4] = target: T1, CB2 receptor; assay: cAMP Assay #2: Hit Hunter cAMP assay, Gi-coupled agonist activity, CB2; assay type: cell-based; parameters: host or cells: cAMP Hunter cell lines; settings: for CB2 fold selectivity: CB1 EC50 / CB2 EC50
Procedure: (§3) Compounds of the invention were assayed in the Hit Hunter® cAMP assay to determine Gi-coupled agonist activity on the CB1 and CB2 receptors, the results of which are provided in Table 5.
(§4) The Hit Hunter® cAMP assay monitors the activation of a GPCR via Gi and […] secondary messenger signaling in a homogenous, non-imaging assay format using a technology developed by DiscoverX called Enzyme Fragment Complementation (EFC) with β-galactosidase (β-Gal) as the functional reporter. […] ED is fused to cAMP and in the assay competes with cAMP generated by cells for binding to a cAMP-specific antibody. Active β-Gal is formed by complementation of exogenous EA to any unbound ED cAMP. Active enzymes can then convert a chemiluminescent substrate, generating an output signal detectable on a standard microplate reader.
(§5) cAMP Hunter cell lines were expanded from freezer stocks according to standard procedures. Cells were seeded in a total volume of 20 μL into white walled, 384-well microplates and incubated at 37° C. for the appropriate time prior to testing. cAMP modulation was determined using the DiscoverX Hit Hunter cAMP XS+ assay. For Gi agonist activity determination, cells were incubated with sample in the presence of EC80 forskolin to induce response (20 μM and 25 μM in the CB1 and CB2 assays, respectively). Media was aspirated from cells and replaced with 15 μL 2:1 HBSS/10 mM HEPES:cAMP XS+Ab reagent.
(§6) Intermediate dilution of sample stocks was performed to generate 4× sample in assay buffer. 5 μL of 4× compound was added to cells and incubated at 37° C. or room temperature for 30 or 60 minutes. Final vehicle concentration was 1%. Assay signal was generated through incubation with 20 μL cAMP XS+ED/CL lysis cocktail for one hour at room temperature. Microplates were read following signal generation with a PerkinElmer Envision™ instrument for chemiluminescent signal detection. Compound activity was analyzed using CBIS data analysis suite (Chem Innovation, CA). For agonist assays, percentage activity was calculated using the following formula: % Activity=100%×(1−(mean RLU of test sample−mean RLU of Max control ligand)/(mean RLU of vehicle control−mean RLU of Max control ligand). Control ligand was the non-selective CB1/CB2 agonist CP55,940.

CB1 receptor [5] = target: T2, CB1 receptor; assay: cAMP Assay #1: CB1 adenylylcyclase assay in CHO cells; assay type: cell-based; parameters: expressed in transfected cells; host or cells: CHO cells
Procedure: as §1
CB1 Activity as determined by Adenylylcyclase Assay: CB1 receptor agonist activity was measured by measuring cAMP production. A compound of the invention was incubated with CHO cells expressing human recombinant CB1 for 20 minutes at 37° C.
as §2

CB2 receptor [6] = target: T1, CB2 receptor; assay: CB2 competitive radioligand binding assay ([3H] WIN-55,212-2); parameters: expressed in transfected cells; host or cells: CHO-K1 cells; settings: for inhibition at 0.05 µM: 0.05 μM compound, 2.4 nM [3H] WIN-55,212-2, 90 min 37° C.; for Fold Selectivity (CB1/CB2): Table 2, ratio of Ki CB1/CB2
In short: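 Single-concentration displacement: 2.4 nM [3H]WIN-55,212-2 competed with 0.05 μM compound (1% DMSO) for 90 min at 37 °C on human CB2 expressed in CHO-K1 cells (HEPES 20 mM, pH 7.0, 0.5% BSA). Result given as % inhibition of bound radioligand.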

CB1 receptor [7] = target: T2, CB1 receptor; assay: cAMP Assay #2: Hit Hunter cAMP assay, Gi-coupled agonist activity, CB1; assay type: cell-based; parameters: host or cells: PathHunter cell lines
Procedure: as §3, §4, §5, §6

CB2 receptor [8] = target: T1, CB2 receptor; assay: cell-based; parameters: host or cells: cAMP Hunter cell lines; settings: PathHunter agonist mode; read-out: CB2 Activity (β-Arrestin)
In short: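 PathHunter β-Arrestin enzyme fragment complementation cells, EA-tagged β-Arrestin and PK-tagged receptor, exposed to compound for 90 to 180 minutes at 37° C. or room temperature, 1% vehicle. Chemiluminescence read 1 h after detection reagent; agonist % activity relative to vehicle and MAX control ligand.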

[9] = CHO cells, 10 min 37° C., relative to 100 nM WIN 55212-2, read-out: CB2 Activity EC50 (cAMP)
[10] = Table 2, read-out: CB1 Binding Ki
[11] = Hit Hunter cAMP, 25 μM forskolin, control ligand CP55,940, read-out: CB2, EC50
[12] = CHO cells, 20 min 37° C., relative to 10 nM CP 55940, read-out: CB1 Activity EC50 (cAMP)
[13] = Table 2, read-out: CB2 Binding Ki
[14] = Hit Hunter cAMP, 20 μM forskolin, control ligand CP55,940, read-out: CB1, EC50

T2 sequence (P21554 whole entry): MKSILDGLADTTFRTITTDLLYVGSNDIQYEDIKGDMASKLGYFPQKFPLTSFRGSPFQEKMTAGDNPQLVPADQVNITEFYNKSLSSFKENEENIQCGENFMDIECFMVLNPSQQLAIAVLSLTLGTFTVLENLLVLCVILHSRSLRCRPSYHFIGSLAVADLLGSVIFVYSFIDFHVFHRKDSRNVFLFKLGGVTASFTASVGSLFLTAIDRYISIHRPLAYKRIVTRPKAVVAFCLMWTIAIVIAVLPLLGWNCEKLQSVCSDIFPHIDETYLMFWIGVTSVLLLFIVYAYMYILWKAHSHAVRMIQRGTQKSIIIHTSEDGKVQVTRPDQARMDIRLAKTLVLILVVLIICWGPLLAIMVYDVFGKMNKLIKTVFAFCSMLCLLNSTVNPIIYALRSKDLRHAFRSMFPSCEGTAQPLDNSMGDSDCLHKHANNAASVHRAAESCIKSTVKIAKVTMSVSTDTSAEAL
T1 sequence (P34972 whole entry): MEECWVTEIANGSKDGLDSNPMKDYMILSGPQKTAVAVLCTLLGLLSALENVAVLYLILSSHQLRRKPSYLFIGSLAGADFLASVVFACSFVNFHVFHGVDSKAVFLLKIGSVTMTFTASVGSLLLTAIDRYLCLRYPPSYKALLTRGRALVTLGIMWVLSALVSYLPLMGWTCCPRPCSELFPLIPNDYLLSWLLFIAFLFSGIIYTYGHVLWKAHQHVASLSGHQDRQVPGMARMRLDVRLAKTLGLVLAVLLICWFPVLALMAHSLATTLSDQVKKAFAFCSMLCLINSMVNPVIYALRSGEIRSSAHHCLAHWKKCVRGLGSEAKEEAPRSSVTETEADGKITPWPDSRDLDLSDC

Structure (SMILES)	EC50 (CB2 receptor [1]) [nM]	EC50 (CB1 receptor [2]) [nM]	Ki (CB1 receptor [3]) [nM]	inhibition at 0.5 µM (CB1 receptor [3]) [%]	EC50 (CB2 receptor [4]) [nM]	CB2 fold selectivity (CB2 receptor [4]; Hit Hunter cAMP)	EC50 (CB1 receptor [5]) [nM]	Ki (CB2 receptor [6]) [nM]	inhibition at 0.05 µM (CB2 receptor [6]) [%]	Fold Selectivity (CB1/CB2) (CB2 receptor [6])	EC50 (CB1 receptor [7]) [nM]	EC50 (CB2 receptor [8]) [nM]	EC50 (CB2 receptor [1]; [9]) [nM]	Ki (CB1 receptor [3]; [10]) [nM]	EC50 (CB2 receptor [4]; [11]) [nM]	EC50 (CB1 receptor [5]; [12]) [nM]	Ki (CB2 receptor [6]; [13]) [nM]	EC50 (CB1 receptor [7]; [14]) [nM]
CCCCCCC(C)(C)c1cc(O)c2c(c1)OC(C)(C)[C@@H]1CC=C(C(=O)NCCO)C[C@@H]21 [Compound 5, (6aR,10aR)-1-Hydroxy-N-(2-hydroxyethyl)-6,6-dimethyl-3-(2-methyloctan-2-yl)-6a,7,10,10a-tetrahydro-6H-benzo[c]chromene-9-carboxamide]	3.3	620	350	49	3.9	8.2	< 3	28	57	12.6	32.2	520						
CCCCCCC(C)(C)c1cc(O)c2c(c1)OC(C)(C)[C@@H]1CC=C(C(=O)NC3CC3)C[C@@H]21 [Compound 6, (6aR,10aR)—N-Cyclopropyl-1-hydroxy-6,6-dimethyl-3-(2-methyloctan-2-yl)-6a,7,10,10a-tetrahydro-6H-benzo[c]chromene-9-carboxamide]	< 3	160	45	64	0.8	6.0	< 3	3.9	98	12	4.7	210						
CCCCCCC(C)(C)c1cc(O)c2c(c1)OC(C)(C)[C@@H]1CC=C(C(=O)NCCCO)C[C@@H]21 [Compound 13, (6aR,10aR)-1-Hydroxy-N-(3-hydroxypropyl)-6,6-dimethyl-3-(2-methyloctan-2-yl)-6a,7,10,10a-tetrahydro-6H-benzo[c]chromene-9-carboxamide]		787		49		26.5			68	34		807	3.1	420	2.5	4.6	12.4	66.2
CCCCCCC(C)(C)c1cc(O)c2c(c1)OC(C)(C)[C@@H]1CC=C(C(=O)N[C@H](C)CCO)C[C@@H]21 [Compound 14, (6aR,10aR)-1-Hydroxy-N—((R)-4-hydroxybutan-2-yl)-6,6-dimethyl-3-(2-methyloctan-2-yl)-6a,7,10,10a-tetrahydro-6H-benzo[c]chromene-9-carboxamide]		> 3000		25		115.2			47	22		8	9.7	1230	4.1	10	56	470
CCCCCCC(C)(C)c1cc(O)c2c(c1)OC(C)(C)[C@@H]1CC=C(C(=O)NCC(O)CO)C[C@@H]21 (stereo partly drawn) [Compound 24, (6aR,10aR)-N-(2,3-Dihydroxypropyl)-1-hydroxy-6,6-dimethyl-3-(2-methyloctan-2-yl)-6a,7,10,10a-tetrahydro-6H-benzo[c]chromene-9-carboxamide]		> 3000		44		63.5			60	35		2	2.4	1930	3.5	13	55	223
CC(C)(c1ccccc1)c1cc(O)c2c(c1)OC(C)(C)[C@@H]1CC=C(C(=O)O)C[C@@H]21 [Compound 35, (6aR,10aR)-1-Hydroxy-6,6-dimethyl-3-(2-phenylpropan-2-yl)-6a,7,10,10a-tetrahydro-6H-benzo[c]chromene-9-carboxylic acid]	> 300	> 3000	> 3000				> 300	> 3000				> 3000						
